The results in this text go back to patent publication US20230250066A1, “HERBICIDAL CINNOLINE DERIVATIVES” (SYNGENTA CROP PROTECTION AG, priority 2020, published 2023).

Common to all, as to format: in vivo
Assay [1] has as its system Amaranthus retoflexus (AMARE). The experiment in a line: Pre-emergence herbicidal test. The settings on record: 1000 g/ha, evaluated after 13 days.
For assay [2], the system named is Setaria faberi (SETFA). The experiment in a line: Pre-emergence herbicidal test. The conditions noted are these: 1000 g/ha, evaluated after 13 days.
For assay [3], the system named is Echinochloa crus-galli (ECHCG). The assay is described as follows: Pre-emergence herbicidal test. The conditions noted are these: 1000 g/ha, evaluated after 13 days.
In assay [4] the test system is Ipomoea hederacea (IPOHE). The assay is described as follows: Pre-emergence herbicidal test. The settings on record: 1000 g/ha, evaluated after 13 days.
Assay [5] deals with Abutilon theophrasti (ABUTH). The experiment in a line: Pre-emergence herbicidal test. The conditions noted are these: 1000 g/ha, evaluated after 13 days.
The test system of assay [6] is Zea mays (ZEAMX). The experiment in a line: Pre-emergence herbicidal test. The conditions noted are these: 1000 g/ha, evaluated after 13 days.
In assay [7] the test system is Abutilon theophrasti (ABUTH). The experiment in a line: Post-emergence herbicidal test. The conditions noted are these: 1000 g/ha unless otherwise stated, evaluated after 13 days. How it is done:
(§1) Seeds of a variety of test species are sown in standard soil in pots (Amaranthus retoflexus (AMARE), Solanum nigrum (SOLNI), Setaria faberi (SETFA), Lolium perenne (LOLPE), Echinochloa crus-galli (ECHCG), Ipomoea hederacea (IPOHE), Abutilon theophrasti (ABUTH), Zea mays (ZEAMX)). After 8 days cultivation under controlled conditions in a glasshouse (at 24° C./16° C., day/night; 14 hours light; 65% humidity), the plants are sprayed with an aqueous spray solution derived from the formulation of the technical active ingredient in acetone/water (50:50) solution containing 0.5% Tween 20 (polyoxyethelyene sorbitan monolaurate, CAS RN 9005-64-5). Compounds are applied at 1000 g/ha unless otherwise stated. The test plants are then grown in a glasshouse under controlled conditions in a glasshouse (at 24° C./16° C., day/night; 14 hours light; 65% humidity) and watered twice daily. After 13 days the test is evaluated for the percentage damage caused to the plant. The biological activities are shown in the following table on a five-point scale (5=81-100%; 4=61-80%; 3=41-60%; 2=21-40%; 1=10-20%; 0=0%;−=not tested).

The subject of assay [8] is Amaranthus retoflexus (AMARE). The experiment in a line: Post-emergence herbicidal test. The settings on record: 1000 g/ha unless otherwise stated, evaluated after 13 days. How it is done:
as §1

For assay [9], the system named is Echinochloa crus-galli (ECHCG). The experiment in a line: Post-emergence herbicidal test. The conditions noted are these: 1000 g/ha unless otherwise stated, evaluated after 13 days. The protocol: as §1
Assay [10] deals with Ipomoea hederacea (IPOHE). The assay is described as follows: Post-emergence herbicidal test. The settings on record: 1000 g/ha unless otherwise stated, evaluated after 13 days. How it is done: as §1
The subject of assay [11] is Setaria faberi (SETFA). The assay is described as follows: Post-emergence herbicidal test. The conditions noted are these: 1000 g/ha unless otherwise stated, evaluated after 13 days. How it is done:
as §1

For assay [12], the system named is Zea mays (ZEAMX). The assay is described as follows: Post-emergence herbicidal test. The conditions noted are these: 1000 g/ha unless otherwise stated, evaluated after 13 days. The protocol:
as §1

The structures appear in SMILES notation.

Take `C=CCOC(=O)c1nn(-c2ccc(OC(F)(F)F)cc2)c2cccc(S(C)(=O)=O)c2c1=O` [Compound P80, allyl 5-methylsulfonyl-4-oxo-1-[4-(trifluoromethoxy)phenyl]cinnoline-3-carboxylate]: the “percentage damage caused to the plant, five-point scale, AMARE” value in [1] is 0 (0=0%). In addition, the “percentage damage caused to the plant, five-point scale, SETFA” value with Setaria faberi (SETFA) [2] was 5 (5=81-100%). In addition, the “percentage damage caused to the plant, five-point scale, ECHCG” value in [3] is 4 (4=61-80%). Also, in assay [4], the “percentage damage caused to the plant, five-point scale, IPOHE” value is recorded as 0 (0=0%). Also, the “percentage damage caused to the plant, five-point scale, ABUTH” value in assay [5] is 0 (0=0%). Also, the “percentage damage caused to the plant, five-point scale, ZEAMX” value in the assay with Zea mays (ZEAMX) [6] is on record as 1 (1=10-20%). For the same molecule, in [7], the “percentage damage caused to the plant, ABUTH (five-point scale)” value was 1 (1=10-20%). For the same molecule, in assay [8], the “percentage damage caused to the plant, AMARE (five-point scale)” value was 0 (0=0%). Further, in assay [9], the “percentage damage caused to the plant, ECHCG (five-point scale)” value is 3 (3=41-60%). For the same molecule, in [10], the “percentage damage caused to the plant, IPOHE (five-point scale)” value was 1 (1=10-20%). For the same molecule, in the assay on Setaria faberi (SETFA) [11], the “percentage damage caused to the plant, SETFA (five-point scale)” value is reported as 4 (4=61-80%). Further, in the assay with Zea mays (ZEAMX) [12], the “percentage damage caused to the plant, ZEAMX (five-point scale)” value is reported as 1 (1=10-20%).

With `CC(C)CCSC(=O)c1nn(-c2ccc(OC(F)(F)F)cc2)c2cccc(S(C)(=O)=O)c2c1=O` [Compound P91, S-isopentyl 5-methylsulfonyl-4-oxo-1-[4-(trifluoromethoxy)phenyl]cinnoline-3-carbothioate], the “percentage damage caused to the plant, five-point scale, AMARE” value in assay [1] is 0 (0=0%). For the same molecule, the “percentage damage caused to the plant, five-point scale, SETFA” value in the assay with Setaria faberi (SETFA) [2] was 4 (4=61-80%). In assay [3], the “percentage damage caused to the plant, five-point scale, ECHCG” value is on record as 3 (3=41-60%). Moreover, the “percentage damage caused to the plant, five-point scale, IPOHE” value in assay [4] was 0 (0=0%). The “percentage damage caused to the plant, five-point scale, ABUTH” value in assay [5] is 0 (0=0%). For the same molecule, the “percentage damage caused to the plant, five-point scale, ZEAMX” value with Zea mays (ZEAMX) [6] was 0 (0=0%). Moreover, the “percentage damage caused to the plant, ABUTH (five-point scale)” value in [7] is given as 1 (1=10-20%). In assay [8], the “percentage damage caused to the plant, AMARE (five-point scale)” value is on record as 0 (0=0%). In [9], the “percentage damage caused to the plant, ECHCG (five-point scale)” value was 3 (3=41-60%). In assay [10], the “percentage damage caused to the plant, IPOHE (five-point scale)” value is reported as 1 (1=10-20%). Moreover, in the assay on Setaria faberi (SETFA) [11], the “percentage damage caused to the plant, SETFA (five-point scale)” value is given as 4 (4=61-80%). Also, the “percentage damage caused to the plant, ZEAMX (five-point scale)” value with Zea mays (ZEAMX) [12] is 1 (1=10-20%).

Turning to `CCOC(=O)c1nn(-c2ccc(OC(F)(F)F)cc2)c2cccc([S+](C)[O-])c2c1=O` (stereo not drawn) [Compound P28, ethyl 5-methylsulfinyl-4-oxo-1-[4-(trifluoromethoxy)phenyl]cinnoline-3-carboxylate], in assay [1], the “percentage damage caused to the plant, five-point scale, AMARE” value is recorded as 0 (0=0%). The “percentage damage caused to the plant, five-point scale, SETFA” value in the assay with Setaria faberi (SETFA) [2] was 0 (0=0%). In assay [3], the “percentage damage caused to the plant, five-point scale, ECHCG” value is listed as 0 (0=0%). Further, the “percentage damage caused to the plant, five-point scale, IPOHE” value in [4] is on record as 0 (0=0%). In addition, the “percentage damage caused to the plant, five-point scale, ABUTH” value in assay [5] is given as 0 (0=0%). The “percentage damage caused to the plant, five-point scale, ZEAMX” value in the assay on Zea mays (ZEAMX) [6] is 0 (0=0%). Further, the “percentage damage caused to the plant, ABUTH (five-point scale)” value in assay [7] is 1 (1=10-20%). Moreover, the “percentage damage caused to the plant, AMARE (five-point scale)” value in assay [8] was 1 (1=10-20%). The “percentage damage caused to the plant, ECHCG (five-point scale)” value in [9] is reported as 0 (0=0%). For the same molecule, in assay [10], the “percentage damage caused to the plant, IPOHE (five-point scale)” value is 0 (0=0%). The “percentage damage caused to the plant, SETFA (five-point scale)” value with Setaria faberi (SETFA) [11] is reported as 1 (1=10-20%). Moreover, the “percentage damage caused to the plant, ZEAMX (five-point scale)” value in the assay with Zea mays (ZEAMX) [12] is listed as 0 (0=0%).
